# Residues, ends and D or L forms follow the SMILES beside them.
# Target: HLA-DR0901 protein (Homo sapiens, UniProt P01903+P01911, A100R/A103E/D57H/D86V/F55Y/F60I/F76Y/I96F/K127E/L162R/M171V/P40D/Q125H/Q99R/R33Q/R42F/S133A/S66N/T210M/V115G/W38K/Y107V/Y59G/Y89S)
# Assay: Peptide binding competition assay, DR0901
row,Compound,Kd
1,CC[C@H](C)[C@H](NC(=O)[C@H](CCCCN)NC(=O)[C@H](CC(=O)O)NC(=O)[C@H](CC(C)C)NC(=O)[C@H](CO)NC(=O)[C@H](Cc1ccc(O)cc1)NC(=O)[C@H](CC(N)=O)NC(=O)[C@H](Cc1ccccc1)NC(=O)[C@H](CC(N)=O)NC(=O)[C@@H](N)CC(C)C)C(=O)N[C@@H](Cc1ccc(O)cc1)C(=O)N[C@H](C(=O)N[C@@H](CC(=O)O)C(=O)O)C(C)C [LNFNYSLDKIYVD] (H-LNFNYSLDKIYVD-OH),240 ± 33 nM
2,CC[C@H](C)[C@H](NC(=O)[C@H](CCCCN)NC(=O)[C@H](CC(N)=O)NC(=O)[C@H](CC(C)C)NC(=O)[C@H](CO)NC(=O)[C@H](Cc1ccc(O)cc1)NC(=O)[C@H](CC(N)=O)NC(=O)[C@H](Cc1ccccc1)NC(=O)[C@H](CC(N)=O)NC(=O)[C@@H](N)CC(C)C)C(=O)N[C@H](C(=O)N[C@H](C(=O)N[C@@H](CC(=O)O)C(=O)O)C(C)C)[C@@H](C)CC [LNFNYSLNKIIVD] (H-LNFNYSLNKIIVD-OH),93 ± 19 nM
3,CC[C@H](C)[C@H](NC(=O)[C@H](CCCCN)NC(=O)[C@H](CC(C)C)NC(=O)[C@H](CC(C)C)NC(=O)[C@H](CO)NC(=O)[C@H](Cc1ccc(O)cc1)NC(=O)[C@H](CC(N)=O)NC(=O)[C@H](Cc1ccccc1)NC(=O)[C@H](CC(N)=O)NC(=O)[C@@H](N)CC(C)C)C(=O)N[C@H](C(=O)N[C@H](C(=O)N[C@@H](CC(=O)O)C(=O)O)C(C)C)[C@@H](C)CC [LNFNYSLLKIIVD] (H-LNFNYSLLKIIVD-OH),67 ± 8 nM
4,CC[C@H](C)[C@H](NC(=O)[C@H](CCCCN)NC(=O)[C@H](CC(=O)O)NC(=O)[C@H](CC(C)C)NC(=O)[C@H](CCC(=O)O)NC(=O)[C@H](Cc1ccc(O)cc1)NC(=O)[C@H](CC(N)=O)NC(=O)[C@H](Cc1ccccc1)NC(=O)[C@H](CC(N)=O)NC(=O)[C@@H](N)CC(C)C)C(=O)N[C@H](C(=O)N[C@H](C(=O)N[C@@H](CC(=O)O)C(=O)O)C(C)C)[C@@H](C)CC [LNFNYELDKIIVD] (H-LNFNYELDKIIVD-OH),116000 nM
5,CC[C@H](C)[C@H](NC(=O)[C@H](CCCCN)NC(=O)[C@H](Cc1c[nH]cn1)NC(=O)[C@H](CC(C)C)NC(=O)[C@H](CO)NC(=O)[C@H](Cc1ccc(O)cc1)NC(=O)[C@H](CC(N)=O)NC(=O)[C@H](Cc1ccccc1)NC(=O)[C@H](CC(N)=O)NC(=O)[C@@H](N)CC(C)C)C(=O)N[C@H](C(=O)N[C@H](C(=O)N[C@@H](CC(=O)O)C(=O)O)C(C)C)[C@@H](C)CC [LNFNYSLHKIIVD] (H-LNFNYSLHKIIVD-OH),87 ± 8 nM
6,CC[C@H](C)[C@H](NC(=O)[C@H](CCCCN)NC(=O)[C@H](C)NC(=O)[C@H](CC(C)C)NC(=O)[C@H](CO)NC(=O)[C@H](Cc1ccc(O)cc1)NC(=O)[C@H](CC(N)=O)NC(=O)[C@H](Cc1ccccc1)NC(=O)[C@H](CC(N)=O)NC(=O)[C@@H](N)CC(C)C)C(=O)N[C@H](C(=O)N[C@H](C(=O)N[C@@H](CC(=O)O)C(=O)O)C(C)C)[C@@H](C)CC [LNFNYSLAKIIVD] (H-LNFNYSLAKIIVD-OH),51 ± 18 nM
7,CC[C@H](C)[C@H](NC(=O)[C@H](CCCCN)NC(=O)[C@H](CC(=O)O)NC(=O)[C@H](CC(C)C)NC(=O)[C@H](CO)NC(=O)[C@H](Cc1ccc(O)cc1)NC(=O)[C@H](CC(N)=O)NC(=O)[C@H](Cc1ccccc1)NC(=O)[C@H](CC(N)=O)NC(=O)[C@@H](N)CC(C)C)C(=O)N[C@@H](CO)C(=O)N[C@H](C(=O)N[C@@H](CC(=O)O)C(=O)O)C(C)C [LNFNYSLDKISVD] (H-LNFNYSLDKISVD-OH),770 ± 100 nM
8,CC[C@H](C)[C@H](NC(=O)[C@H](CCSC)NC(=O)[C@H](CC(=O)O)NC(=O)[C@H](CC(C)C)NC(=O)[C@H](CO)NC(=O)[C@H](Cc1ccc(O)cc1)NC(=O)[C@H](CC(N)=O)NC(=O)[C@H](Cc1ccccc1)NC(=O)[C@H](CC(N)=O)NC(=O)[C@@H](N)CC(C)C)C(=O)N[C@H](C(=O)N[C@H](C(=O)N[C@@H](CC(=O)O)C(=O)O)C(C)C)[C@@H](C)CC [LNFNYSLDMIIVD] (H-LNFNYSLDMIIVD-OH),24 ± 5 nM

# Reference: paper PMC4061985 (Journal of immunology (Baltimore, Md. : 1950), 2009)
